Assays:
Dopaminergic D2S = Dopaminergic D2S (Homo sapiens, UniProt P14416); experiment: CNS receptor binding assay, D2S; conditions: MAP4343 10 µM; [^3H] spiperone; Human recombinant (HEK-293 cells); read-out: % Inhibition of control specific binding
Method: (§1) MAP4343 has been screened for in vitro affinity to 80 different CNS neurotransmitters receptors using various validated binding assays.
(§2) Table 4. In vitro affinity of MAP4343 (10 µM) for CNS neurotransmitter receptors associated with side effects and/or abuse liability. Data are the average of two individual assays for each receptor and are expressed as % inhibition of the control specific binding of the reference compound. Results showing an inhibition higher than 50% are considered to represent significant effects of the test compound.

[1] = target: T1, Glucorticoid Receptor (GR) (Homo sapiens, UniProt P04150); experiment: Radioligand binding assay, steroid hormone receptor GR; conditions: MAP4343 10 µM; 3 nM [^3H] Dexamethasone; Human HeLa S3 cells
T1 construct: Human HeLa S3 cells; endogenous in cells; host or cells: HeLa S3
T1 sequence (P04150 whole entry): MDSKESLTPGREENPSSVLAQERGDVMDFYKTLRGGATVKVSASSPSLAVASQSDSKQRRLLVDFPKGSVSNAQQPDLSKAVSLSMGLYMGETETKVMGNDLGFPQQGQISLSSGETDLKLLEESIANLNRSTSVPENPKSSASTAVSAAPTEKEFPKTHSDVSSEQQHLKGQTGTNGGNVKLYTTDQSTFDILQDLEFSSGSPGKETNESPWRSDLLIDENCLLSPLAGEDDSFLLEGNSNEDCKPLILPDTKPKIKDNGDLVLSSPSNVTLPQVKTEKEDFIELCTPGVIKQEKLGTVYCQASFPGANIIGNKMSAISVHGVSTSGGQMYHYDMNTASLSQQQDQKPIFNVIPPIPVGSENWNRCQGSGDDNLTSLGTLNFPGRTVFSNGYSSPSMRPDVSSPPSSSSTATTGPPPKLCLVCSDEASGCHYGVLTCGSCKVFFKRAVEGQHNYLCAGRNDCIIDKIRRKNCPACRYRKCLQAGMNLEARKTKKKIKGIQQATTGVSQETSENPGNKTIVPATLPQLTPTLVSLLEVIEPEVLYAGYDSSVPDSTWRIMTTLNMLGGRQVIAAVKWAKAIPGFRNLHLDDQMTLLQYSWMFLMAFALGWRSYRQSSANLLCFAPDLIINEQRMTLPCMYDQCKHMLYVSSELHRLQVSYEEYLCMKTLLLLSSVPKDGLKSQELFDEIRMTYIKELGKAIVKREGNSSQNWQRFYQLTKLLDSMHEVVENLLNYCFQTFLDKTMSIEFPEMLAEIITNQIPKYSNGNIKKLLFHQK
Method: (§3) Binding affinity of 3β-methoxy-PREG (MAP4343) for receptors of steroid hormones was evaluated using radioligand binding assays.
(§4) Table 3. Affinity of MAP4343 (10 µM) for steroid hormones receptors measured by radioligand binding assays. […] None of the results met significance criteria at concentrations used.

Dopaminergic D3 = Dopaminergic D3 (Homo sapiens, UniProt P35462); experiment: CNS receptor binding assay, D3; conditions: MAP4343 10 µM; [^3H] spiperone; Human recombinant (CHO cells); read-out: % Inhibition of control specific binding
Method: as §1, §2

Noradrenergic β2 = Noradrenergic β2 (Homo sapiens, UniProt P07550); experiment: CNS receptor binding assay, β2; conditions: MAP4343 10 µM; [^3H] (-) CGP 12178; Human recombinant (CHO cells); read-out: % Inhibition of control specific binding
Method: as §1, §2

[2] = target: purified tubulin and MAP2 (Homo sapiens, UniProt P11137); experiment: Microtubule polymerization activity (optical density at 345 nm); assay type: biochemical; conditions: increase in optical density at 345 nm, 37 °C, in the presence of GTP
purified tubulin and MAP2, sequence (P11137 whole entry): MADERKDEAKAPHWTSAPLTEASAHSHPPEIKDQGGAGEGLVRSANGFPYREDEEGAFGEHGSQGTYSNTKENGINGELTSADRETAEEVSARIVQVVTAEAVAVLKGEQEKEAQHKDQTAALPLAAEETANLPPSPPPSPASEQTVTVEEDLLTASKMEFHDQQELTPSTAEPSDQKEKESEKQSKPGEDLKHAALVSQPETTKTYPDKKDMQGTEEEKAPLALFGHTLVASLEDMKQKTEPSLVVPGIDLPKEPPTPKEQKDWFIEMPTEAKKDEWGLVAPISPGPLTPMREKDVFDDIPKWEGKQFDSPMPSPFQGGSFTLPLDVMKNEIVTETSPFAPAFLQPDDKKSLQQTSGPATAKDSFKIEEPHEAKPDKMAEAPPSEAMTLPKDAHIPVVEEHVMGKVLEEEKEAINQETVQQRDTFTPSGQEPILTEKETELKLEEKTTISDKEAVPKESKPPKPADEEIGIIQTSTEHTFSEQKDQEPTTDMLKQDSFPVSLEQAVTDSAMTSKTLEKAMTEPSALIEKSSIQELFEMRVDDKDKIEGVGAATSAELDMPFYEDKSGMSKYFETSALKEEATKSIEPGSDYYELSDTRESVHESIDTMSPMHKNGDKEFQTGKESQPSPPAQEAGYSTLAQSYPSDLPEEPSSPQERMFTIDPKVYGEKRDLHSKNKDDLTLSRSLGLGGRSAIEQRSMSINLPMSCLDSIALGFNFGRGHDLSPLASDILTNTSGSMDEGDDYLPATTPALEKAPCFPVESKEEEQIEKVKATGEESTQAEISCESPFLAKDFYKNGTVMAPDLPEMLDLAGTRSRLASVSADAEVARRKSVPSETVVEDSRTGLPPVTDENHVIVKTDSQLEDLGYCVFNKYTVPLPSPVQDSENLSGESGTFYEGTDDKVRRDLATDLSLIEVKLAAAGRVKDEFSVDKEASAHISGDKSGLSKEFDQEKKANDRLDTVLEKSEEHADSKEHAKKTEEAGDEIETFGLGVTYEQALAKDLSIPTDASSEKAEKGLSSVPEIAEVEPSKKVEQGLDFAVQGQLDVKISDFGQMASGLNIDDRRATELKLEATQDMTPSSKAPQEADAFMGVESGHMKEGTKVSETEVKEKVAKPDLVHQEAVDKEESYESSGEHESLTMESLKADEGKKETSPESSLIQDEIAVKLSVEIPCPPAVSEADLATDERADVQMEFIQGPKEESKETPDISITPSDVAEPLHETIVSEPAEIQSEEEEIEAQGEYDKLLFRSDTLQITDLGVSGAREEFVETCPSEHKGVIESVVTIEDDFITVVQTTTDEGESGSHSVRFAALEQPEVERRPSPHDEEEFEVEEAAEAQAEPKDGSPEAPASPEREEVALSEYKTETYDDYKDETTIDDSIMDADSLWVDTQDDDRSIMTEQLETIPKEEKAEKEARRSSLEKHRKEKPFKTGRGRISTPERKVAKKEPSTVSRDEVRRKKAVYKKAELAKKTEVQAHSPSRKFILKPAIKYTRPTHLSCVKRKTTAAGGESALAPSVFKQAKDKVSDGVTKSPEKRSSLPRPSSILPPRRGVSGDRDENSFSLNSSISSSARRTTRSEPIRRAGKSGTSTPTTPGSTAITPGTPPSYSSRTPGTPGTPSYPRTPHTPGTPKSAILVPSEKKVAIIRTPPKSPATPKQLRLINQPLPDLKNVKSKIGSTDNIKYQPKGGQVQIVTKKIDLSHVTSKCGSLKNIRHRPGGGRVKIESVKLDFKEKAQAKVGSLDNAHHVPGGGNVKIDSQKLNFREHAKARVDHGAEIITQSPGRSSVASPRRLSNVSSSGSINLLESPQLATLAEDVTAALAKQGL
Method: Activity is measured by the increase in optical density at 345 nm of a mixture of purified tubulin and MAP2, incubated at 37 °C in the presence of GTP.

Cannabinoid CB1 = Cannabinoid CB1 (Homo sapiens, UniProt P21554); experiment: CNS receptor binding assay, CB1; conditions: MAP4343 10 µM; [^3H] CP 55940; Human recombinant (CHO cells); read-out: % Inhibition of control specific binding
Cannabinoid CB1, sequence (P21554 whole entry): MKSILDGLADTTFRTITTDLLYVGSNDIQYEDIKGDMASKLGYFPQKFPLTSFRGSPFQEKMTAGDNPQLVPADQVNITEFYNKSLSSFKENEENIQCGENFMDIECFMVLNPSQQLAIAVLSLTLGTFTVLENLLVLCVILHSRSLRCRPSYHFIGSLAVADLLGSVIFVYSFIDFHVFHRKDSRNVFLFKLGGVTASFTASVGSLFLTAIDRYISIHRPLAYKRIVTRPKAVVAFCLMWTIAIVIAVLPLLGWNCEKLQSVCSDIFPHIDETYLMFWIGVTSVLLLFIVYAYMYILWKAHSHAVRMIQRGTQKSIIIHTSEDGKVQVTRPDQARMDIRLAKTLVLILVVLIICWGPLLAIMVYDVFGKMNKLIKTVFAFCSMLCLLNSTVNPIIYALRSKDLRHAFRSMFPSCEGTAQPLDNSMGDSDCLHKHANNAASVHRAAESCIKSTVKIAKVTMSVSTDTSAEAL
Method: as §1, §2

Wistar Kyoto (WKY) rats = experiment: Anxious-like behavior: activity in the central square of the open-field arena, WKY rats; assay type: in vivo, rat; conditions: acute, MAP4343 10 mg/kg s.c., fluoxetine 10 mg/kg i.p., ketamine 30 mg/kg i.p.
Method: After a 6-day period of acclimatization, all experimental groups received daily successive subcutaneous (250 µl per rat) and intraperitoneal (1 ml/kg) injections. WI rats received injection of vehicle (sesame oil + saline) while WKY rats were randomly assigned to […], as follow: KWY rats receiving only vehicle (sesame oil + saline) and WKY rats treated with MAP4343 (10 mg/kg, s.c.; rats received in parallel i.p. injections of saline), fluoxetine (10 mg/kg i.p., rats received in parallel s.c. injections of sesame oil) or ketamine (30 mg/kg, i.p.; rats received in parallel s.c. injections of sesame oil) (see Figure 3).
After, a 6-day period of acclimatization, the acute phase of treatment started for 4 days during behavioral tests were performed (Figure 3). All animals were injected 1h30 before the starting of behavioral test.
The animals were individually placed in the open field arena (OFA) (70 x 100 x 70 cm), with a central square (35 x 50 cm), located in a 50 lux illuminated room and videotaped during 3 min using a computerized system (VideoTrack V2.5, ViewPoint, Lyon, France).
OFA allows firstly the evaluation of total locomotor activity (LMA) thereby measuring the total distance travelled in the arena (in cm). Secondly, measurements of the activity in the center of the arena like (i) the number of entries in the center of arena and (ii) the total time spent in the center of arena (in sec) provide cues of anxiety-like behavior (Prut and Belzung, 2003). All these behavioral parameters were instantaneously measured automatically with the VideoTrack V2.5 software from the videos.

Oppioid K = Oppioid K (Rattus norvegicus, UniProt P34975); experiment: CNS receptor binding assay, opioid K; conditions: MAP4343 10 µM; [^3H] U 69593; rat recombinant (CHO cells); read-out: % Inhibition of control specific binding
Oppioid K, sequence (P34975 whole entry): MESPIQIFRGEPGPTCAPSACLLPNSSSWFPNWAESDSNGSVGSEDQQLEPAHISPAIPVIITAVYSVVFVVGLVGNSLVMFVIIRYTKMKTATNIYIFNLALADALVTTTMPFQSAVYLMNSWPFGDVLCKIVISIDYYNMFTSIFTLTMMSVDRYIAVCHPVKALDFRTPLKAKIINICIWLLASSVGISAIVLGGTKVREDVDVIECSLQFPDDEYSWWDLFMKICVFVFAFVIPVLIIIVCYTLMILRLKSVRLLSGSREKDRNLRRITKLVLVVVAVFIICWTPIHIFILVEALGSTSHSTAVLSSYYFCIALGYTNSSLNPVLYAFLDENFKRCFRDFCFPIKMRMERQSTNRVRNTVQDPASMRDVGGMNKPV
Method: as §1, §2

Noradrenergic α2 = experiment: CNS receptor binding assay, α2; conditions: MAP4343 10 µM; [^3H] RX 821002; rat cerebral cortex
Method: as §1, §2

Serotoninergic 5-HT3 = Serotoninergic 5-HT3 (Homo sapiens, UniProt P46098); experiment: CNS receptor binding assay, 5-HT3; conditions: MAP4343 10 µM; [^3H] BRL 43694; Human recombinant (CHO cells); read-out: % Inhibition of control specific binding
Serotoninergic 5-HT3, sequence (P46098 24-478): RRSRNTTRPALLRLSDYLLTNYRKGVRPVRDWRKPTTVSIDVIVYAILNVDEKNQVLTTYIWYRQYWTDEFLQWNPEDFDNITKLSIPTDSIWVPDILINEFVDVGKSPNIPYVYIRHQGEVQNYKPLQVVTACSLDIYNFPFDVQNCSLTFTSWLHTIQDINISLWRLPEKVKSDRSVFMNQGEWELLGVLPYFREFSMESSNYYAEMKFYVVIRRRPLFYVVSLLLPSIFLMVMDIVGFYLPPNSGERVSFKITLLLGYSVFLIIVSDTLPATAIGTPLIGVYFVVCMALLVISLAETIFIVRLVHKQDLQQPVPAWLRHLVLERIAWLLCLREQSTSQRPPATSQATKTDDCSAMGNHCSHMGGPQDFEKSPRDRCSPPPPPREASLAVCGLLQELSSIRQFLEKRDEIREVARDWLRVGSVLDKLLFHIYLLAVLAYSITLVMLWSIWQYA
Method: as §1, §2

[3] = test system: microtubule-associated protein2 (MAP2); experiment: Binding (affinity) by displacement of PREG-3H; conditions: index of binding
Serotoninergic 5-HT1A = Serotoninergic 5-HT1A (Homo sapiens, UniProt P08908); experiment: CNS receptor binding assay, 5-HT1A; conditions: MAP4343 10 µM; [^3H] 8-OH-DPAT; Human recombinant (HEK-293 cells); read-out: % Inhibition of control specific binding
Method: as §1, §2

PC12 cells = experiment: Stimulation of neuritic sprouting; assay type: cell-based; conditions: PC12 cells differentiated with NGF (10 ng/ml), steroid 30 µM, 3 days; relative to PREG
Method: Stimulation of neuritic sprouting is conducted on PC12 cells differentiated in the presence of NGF (10 ng/ml) and the steroid being tested (30 µM) for 3 days. For each condition, the average length of the longest 200 neurites […] is measured simultaneously for 3 cultures.

[4] = target: T2, Muscarinic (Cholinergic) M4 (Homo sapiens, UniProt P08173); experiment: CNS receptor binding assay, M4; conditions: MAP4343 10 µM; [^3H] 4-DAMP; Human recombinant (CHO cells); read-out: % Inhibition of control specific binding
T2 construct: expressed in transfected cells; host or cells: CHO cells
T2 sequence (P08173 whole entry): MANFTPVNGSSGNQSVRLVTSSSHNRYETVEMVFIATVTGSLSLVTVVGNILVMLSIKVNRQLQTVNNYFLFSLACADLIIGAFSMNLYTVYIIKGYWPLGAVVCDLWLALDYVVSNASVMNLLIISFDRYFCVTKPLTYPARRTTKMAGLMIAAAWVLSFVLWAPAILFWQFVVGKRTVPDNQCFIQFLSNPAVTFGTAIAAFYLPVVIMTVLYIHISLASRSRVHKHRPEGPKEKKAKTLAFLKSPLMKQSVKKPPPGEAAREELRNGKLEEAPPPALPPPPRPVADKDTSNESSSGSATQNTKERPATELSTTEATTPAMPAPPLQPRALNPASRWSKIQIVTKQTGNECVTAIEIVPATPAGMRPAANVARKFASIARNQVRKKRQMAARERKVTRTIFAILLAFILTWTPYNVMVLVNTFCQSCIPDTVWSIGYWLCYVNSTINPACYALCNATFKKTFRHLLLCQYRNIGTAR
Method: as §1, §2

[5] = test system: 80 different CNS neurotransmitters receptors; experiment: Screen for in vitro affinity to 80 CNS neurotransmitter receptors; assay type: binding; conditions: MAP4343 10 µM; inhibition higher than 50% considered significant
Method: as §1, §2

Androgen Receptor (AR) = target: T3, Androgen Receptor (AR) (Rattus norvegicus, UniProt P15207); experiment: Radioligand binding assay, steroid hormone receptor AR; conditions: MAP4343 10 µM; 1.5 nM [^3H] Mibolerone; Rat recombinant E. coli
T3 construct: host or cells: E. coli
T3 sequence (P15207 615-902 limits assumed): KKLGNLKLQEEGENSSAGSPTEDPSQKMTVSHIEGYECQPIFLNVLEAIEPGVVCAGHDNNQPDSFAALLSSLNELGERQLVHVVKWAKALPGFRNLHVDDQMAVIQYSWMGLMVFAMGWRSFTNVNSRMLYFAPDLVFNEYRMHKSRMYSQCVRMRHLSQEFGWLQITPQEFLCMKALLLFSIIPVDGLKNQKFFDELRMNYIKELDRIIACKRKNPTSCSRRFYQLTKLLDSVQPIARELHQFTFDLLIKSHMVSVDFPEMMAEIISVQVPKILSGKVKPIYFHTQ
Method: as §3, §4

## CO[C@H]1CC[C@@]2(C)C(=CC[C@H]3[C@@H]4CC[C@H](C(C)=O)[C@@]4(C)CC[C@@H]32)C1 (stereo in doubt) [MAP4343, 3β-methoxy-pregna-5-ene-20-one]
Dopaminergic D2S
  inhibition at 10 µM: 6%
[1]
  % inhibition: 21%
  inhibition at 10 µM: < 25%
Dopaminergic D3
  inhibition at 10 µM: 8%
Noradrenergic β2
  inhibition at 10 µM: -4%
[2]
  Activity: 100% of PREG
Cannabinoid CB1
  inhibition at 10 µM: 12%
Wistar Kyoto (WKY) rats; Fig. 5B
  number of entries in the central square of OFA, change as compared to WKY receiving only vehicle: +289%
Wistar Kyoto (WKY) rats; Fig. 5C
  time spent in the center of open-field, change as compared to WKY receiving vehicle: did not modify
Oppioid K
  inhibition at 10 µM: 19%
Noradrenergic α2
  % Inhibition of control specific binding: 7%
Serotoninergic 5-HT3
  inhibition at 10 µM: 10%
[3]
  Affinity: 100% of PREG
Serotoninergic 5-HT1A
  inhibition at 10 µM: 2%
PC12 cells
  Neuritic sprouting: +++
[4]
  inhibition at 10 µM: 20%
[5]
  in vitro affinity for tested receptors: no significant affinity for any tested receptor
Androgen Receptor (AR)
  % inhibition: 18%
  inhibition at 10 µM: < 25%
